# Measurements from patent US20240027453A1, “METHOD FOR DETECTION AND QUANTITATIVE MONITORING OF INFECTIONS WITH HERPESVIRUSES” (The Trustees of Princeton University, priority 2020, published 2024).
# Where two headings read alike, the source gives them in different places.
# Test system: HCMV
# Assay type: cell-based
# Experimental: In example herpesvirus PRM assay methods shown herein, cell pellets were lysed in 2% SDS, 100 mM NaCl, 0.5 mM EDTA, 50 mM Tris, pH 8.2, and 50 μg of protein was reduced and alkylated with 25 mM TCEP and 50 mM CAM respectively for 20 min at 70° C. Proteins were then precipitated via methanol chloroform precipitation (Wessel & Flugg, Anal Biochem. 138(1):141-143, 1984), resuspended in 50 mM HEPES, pH 8.2 and digested overnight with trypsin (50:1 protein:enzyme w/w ratio). Digested peptides were desalted by SDB-RPS StageTip as previously described (Lum et al., Cell Syst., 7(6):[…], 2018; Greco et al., Methods Mol Biol 1410:39-63, 2016; Federspiel & Cristea, Methods Mol Biol., 1977:115-143, 2019).
# Peptides (1.0 μg on column) were analyzed by LC-MS/MS using a Dionex Ultimate 3000 UHPLC coupled online to an EASYSpray ion source and a Q Exactive HF. Peptides were separated on an EASYSpray C18 column (75 μm×25 cm) heated to 50° C. using a linear gradient of 5% B to 32% B over 60 min at a flow rate of 250 nL/min and were ionized at 1.7 kv. Mobile phase A consisted of 0.1% FA in H2O and mobile phase B consisted of 0.1% FA, 2.9% H2O in ACN.
# The PRM method was controlled by a peptide inclusion list with retention time windows of 6 min for selected precursor ions.
# The PRM assay was developed and analyzed using the open-source software Skyline (Maclean et al., Bioinformatics 26(7):966-968, 2010). Summed area under the curve of 3-4 transitions per peptide was used for quantitation. Targeted peptides were normalized to host protein loading control peptides. Peptide values for each sample were scaled to the average of each peptide across all runs. The average of multiple peptides was used as the inferred value for the protein measurement when more than one peptide was quantified (Federspiel et al., PLoS Biol. 17(9):e3000437. Doi: 10.1371/journal.pbio.3000437). PRM quantitation data were graphed using the Python Seaborn and Matplotlib libraries.
# MRC5 primary human fibroblasts (HFs) (ATCC CCL-171) were used as the model system for HSV-1 and HCMV infections and were cultured in complete growth medium (DMEM supplemented with 10% fetal bovine serum and 1% penicillin-streptomycin antibiotics) at 37° C. and 5% CO2. iSLK.219 cells harboring latent KSHV (a gift from Dr. Britt Glaunsinger, University of California, Berkeley) were grown in complete growth medium supplemented with 500 μg/ml hygromycin (ThermoFisher Scientific, 10687010) at 37° C. and 5% CO2. All cells were used for experiments within a maximum of 10 passages.
# Wild type HSV-1 strain 17+ (a gift from Beate Sodeik, Hannover Medical School, Hannover, Germany) was propagated as previously described (Diner et al., 2015). Briefly, PO stocks were generated by electroporating pBAC-HSV-1 into U-2 OS cells. […] In a similar manner, wild type HCMV strain AD169 was produced from BAC electroporation into HFs and working stocks were propagated by infecting HFs at a low level. In both cases, cell-associated virus was released by sonication, combined with supernatant virus, then concentrated by ultracentrifugation (20,000 rpm, 2 hours, 4° C. with SW28 swinging bucket rotor [Beckman Coulter]) over a 10% ficoll (HSV-1) or 20% sorbitol (HCMV) cushion. Virus stock titers were determined by plaque assay for HSV-1 or tissue culture infectious dose (TCID50) for HCMV and infections were performed at a multiplicity of infection (MOI) of 3.
# 12 hours prior to virus infection or reactivation, cells were treated with either the small molecule drug or DMSO/PBS control at an equivalent volume. […] For infection cycles lasting longer than 24 hours, small molecule drugs were re-added to the cell culture medium every 24 hours. Upon collection, cells were rinsed with PBS, scraped into a microcentrifuge tube, pelleted by centrifugation, and rinsed again with PBS.
structure (smiles),measurement,setting,value
Nc1c(S(=O)(=O)c2ccccc2)c2nc3ccccc3nc2n1-c1ccc(F)cc1 [CAY10602],UL117 (P16770) protein level,"timepoint 96, L",0.3951
same,gH (P12824) protein level,"timepoint 96, L",0.2835
same,gL (P16832) protein level,"timepoint 96, L",0.2623
same,gM (P16733) protein level,"timepoint 96, L",0.2653
same,gN (P16795) protein level,"timepoint 96, L",0.3
same,IR10 (P16808) protein level,"timepoint 96, LL",0.2057
same,IR12 (P16810) protein level,"timepoint 96, LL",0.691
same,TRM3 (P16732) protein level,"timepoint 96, LL",0.1638
same,TRX1 (P16783) protein level,"timepoint 96, LL",0.107
same,TRX2 (P16728) protein level,"timepoint 96, LL",0.1423
same,UL24 (P16760) protein level,"timepoint 96, LL",0.2363
same,UL40 (P16780) protein level,"timepoint 96, LL",0.5384
same,UL47 (P16784) protein level,"timepoint 96, LL",0.2331
same,UL49 (P16786) protein level,"timepoint 96, LL",0.2651
same,UL69 (P16749) protein level,"timepoint 96, LL",0.3508
same,UL70 (P17149) protein level,"timepoint 96, LL",0.6104
same,UL83 (P06725) protein level,"timepoint 96, LL",0.1002
same,UL132 (P69338) protein level,"timepoint 96, LL",0.23
same,US15 (P09718) protein level,"timepoint 96, LL",0.4576
same,CVC2 (P16726) protein level,"timepoint 120, DE",0.2864
same,DBP (P17147) protein level,"timepoint 120, DE",1.237
same,HELI (P16736) protein level,"timepoint 120, DE",0.9924
same,IR01 (P09710) protein level,"timepoint 120, DE",0.5584
same,NEC1 (P16794) protein level,"timepoint 120, DE",0.2446
same,NEC2 (P16791) protein level,"timepoint 120, DE",0.5195
same,RIR1 (P16782) protein level,"timepoint 120, DE",0.4577
same,TRM1 (P16724) protein level,"timepoint 120, DE",0.5809
same,UL4 (P17146) protein level,"timepoint 120, DE",0.3635
same,UL26 (P16762) protein level,"timepoint 120, DE",0.7327
same,UL32 (P08318) protein level,"timepoint 120, DE",0.3617
same,UL34 (P16812) protein level,"timepoint 120, DE",0.476
same,UL35 (P16766) protein level,"timepoint 120, DE",0.2648
same,UL38 (P16779) protein level,"timepoint 120, DE",0.7917
same,UL44 (P16790) protein level,"timepoint 120, DE",0.3691
same,UL48 (P16785) protein level,"timepoint 120, DE",0.6239
same,UL54 (P08546) protein level,"timepoint 120, DE",1.076
same,UL71 (P16823) protein level,"timepoint 120, DE",0.6451
same,UL78 (P16751) protein level,"timepoint 120, DE",0.6099
same,UL84 (P16727) protein level,"timepoint 120, DE",0.5628
same,UL95 (P16801) protein level,"timepoint 120, DE",0.6017
same,UL96 (P16787) protein level,"timepoint 120, DE",0.8056
same,UL97 (P16788) protein level,"timepoint 120, DE",0.6064
same,UL98 (P16789) protein level,"timepoint 120, DE",0.7315
same,UL102 (P16827) protein level,"timepoint 120, DE",1.128
same,UL104 (P16735) protein level,"timepoint 120, DE",0.5969
same,UL112/UL113 (P17151) protein level,"timepoint 120, DE",0.6787
same,UL114 (P16769) protein level,"timepoint 120, DE",0.9011
same,UL119/UL118 (P16739) protein level,"timepoint 120, DE",0.9064
same,UL128 (P16837) protein level,"timepoint 120, DE",0.537
same,US8 (P09730) protein level,"timepoint 120, DE",0.7858
same,US9 (P09729) protein level,"timepoint 120, DE",0.8529
same,US12 (P09721) protein level,"timepoint 120, DE",0.4687
same,US13 (P09720) protein level,"timepoint 120, DE",0.889
same,US14 (P09719) protein level,"timepoint 120, DE",0.6652
same,US18 (P69334) protein level,"timepoint 120, DE",1.01
same,US22 (P09722) protein level,"timepoint 120, DE",0.7763
same,US23 (P09701) protein level,"timepoint 120, DE",0.7758
same,US24 (P09700) protein level,"timepoint 120, DE",0.8183
same,US34 (P09709) protein level,"timepoint 120, DE",0.4168
same,gB (P06473) protein level,"timepoint 120, DE",0.6582
same,IRS1 (P09715) protein level,"timepoint 120, IE",0.8786
same,TRS1 (P09695) protein level,"timepoint 120, IE",0.7933
same,UL13 (P16755) protein level,"timepoint 120, IE",0.4263
same,UL36 (P16767) protein level,"timepoint 120, IE",0.8112
same,UL37 (P16778) protein level,"timepoint 120, IE",0.8715
same,UL122 (P19893) protein level,"timepoint 120, IE",0.4332
same,UL123 (P13202) protein level,"timepoint 120, IE",0.6795
same,CVC1 (P16799) protein level,"timepoint 120, L",0.5173
same,GO (P16750) protein level,"timepoint 120, L",0.4236
same,IR11 (P16809) protein level,"timepoint 120, L",1.205
same,MCP (P16729) protein level,"timepoint 120, L",0.4497
same,SCP (Q7M6N6) protein level,"timepoint 120, L",0.3169
same,TRM2 (P16792) protein level,"timepoint 120, L",0.4883
same,UL22A (P16845) protein level,"timepoint 120, L",0.9462
same,UL25 (P16761) protein level,"timepoint 120, L",0.5081
same,UL29 (P16764) protein level,"timepoint 120, L",0.8148
same,UL30 (P16765) protein level,"timepoint 120, L",0.4064
same,UL31 (P16848) protein level,"timepoint 120, L",0.5275
same,UL43 (P16781) protein level,"timepoint 120, L",0.2294
same,UL52 (P16793) protein level,"timepoint 120, L",0.6161
same,UL76 (P16725) protein level,"timepoint 120, L",0.366
same,UL79 (P16752) protein level,"timepoint 120, L",0.3998
same,UL80 (P16753) protein level,"timepoint 120, L",0.5912
same,UL82 (P06726) protein level,"timepoint 120, L",0.5561
same,UL87 (P16730) protein level,"timepoint 120, L",0.3281
same,UL88 (P16731) protein level,"timepoint 120, L",0.6339
same,UL94 (P16800) protein level,"timepoint 120, L",0.5803
same,UL99 (P13200) protein level,"timepoint 120, L",0.4749
same,UL103 (P16734) protein level,"timepoint 120, L",0.5208
same,UL117 (P16770) protein level,"timepoint 120, L",0.5442
same,gH (P12824) protein level,"timepoint 120, L",0.5849
same,gL (P16832) protein level,"timepoint 120, L",0.5768
same,gM (P16733) protein level,"timepoint 120, L",0.6508
same,gN (P16795) protein level,"timepoint 120, L",0.6429
same,DUT (P16824) protein level,"timepoint 120, LL",0.5447
same,IR10 (P16808) protein level,"timepoint 120, LL",0.4495
same,IR12 (P16810) protein level,"timepoint 120, LL",0.797
same,TRM3 (P16732) protein level,"timepoint 120, LL",0.383
same,TRX1 (P16783) protein level,"timepoint 120, LL",0.3398
same,TRX2 (P16728) protein level,"timepoint 120, LL",0.4401
same,UL24 (P16760) protein level,"timepoint 120, LL",0.5907
same,UL40 (P16780) protein level,"timepoint 120, LL",0.5612
same,UL47 (P16784) protein level,"timepoint 120, LL",0.5287
same,UL49 (P16786) protein level,"timepoint 120, LL",0.5619
same,UL69 (P16749) protein level,"timepoint 120, LL",0.6101
same,UL70 (P17149) protein level,"timepoint 120, LL",0.846
same,UL83 (P06725) protein level,"timepoint 120, LL",0.4091
same,UL132 (P69338) protein level,"timepoint 120, LL",0.4011
same,US15 (P09718) protein level,"timepoint 120, LL",0.6187
